This assay deals with γ-secretase (Homo sapiens, UniProt P49768). The experiment in a line: Screening for γ-secretase-modulating activity in SKNBE2 cells carrying APP 695 wild type. It counts as cell-based. The following applies: SKNBE2 cells carrying the APP 695 wild type. How it is done: Screening of the Compounds of the Invention for γ-Secretase-modulating Activity Screening was carried out using SKNBE2 cells carrying the APP 695—wild type, grown in DMEM/NUT-mix F12 (HAM) provided by Gibco (cat no. 31330-38) containing 5% Serum/Fe supplemented with 1% non-essential amino acids. Cells were grown to near confluency. The screening was performed using the assay as described in Citron et al (1997) Nature Medicine 3: 67.

Turning to `CC(C)CC(C(=O)O)c1cc(NC(=O)c2cc(C(F)(F)F)cc(C(F)(F)F)c2)cc(-c2ccc(C(F)(F)F)cc2)c1` (centres unmarked) [Compound 3, 2-[5-(3,5-Bis-trifluoromethyl-benzoylamino)-4′-trifluoromethyl-biphenyl-3-yl]-4-methyl-pentanoic acid], the inhibition at 1 µM was 24%. As to `CC(C)CC(C(=O)O)c1cc(NC(=O)c2cc(F)cc(F)c2)cc(-c2ccc(C(F)(F)F)cc2)c1` (centres unmarked) [Compound 4, 2-[5-(3,5-Difluoro-benzoylamino)-4′-trifluoromethyl-biphenyl-3-yl]-4-methyl-pentanoic acid], the inhibition at 1 µM was determined as 34%.

Values taken from patent publication US7951843B2, “Amide linked modulators of γ-secretase” (Janssen Pharmaceutica N.V., priority 2007, dated 2011).
